Experimental findings from patent US4434170A, “Nor-tropane derivatives, and their application in therapeutics” (Delalande S.A., priority 1980, dated 1984) are described below.

Series [1] deals with apomorphinic straightenings. Nature of the series: Antagonism to apomorphinic straightenings (mice). The settings on record: Mus musculus, ip, read-out: Antagonism to apomorphinic straightenings (mice) ED 50. It is filed as in vivo. The source says: (§1) I. C. Niemegeers and A. H. M. Jageneau in Arzneim-Forsch. (1960), 10, 1003.
The subject of series [2] is apomorphine induced stereotypies. Nature of the series: Antagonism to the apomorphine induced stereotypies (rat). The series is classed as in vivo. The settings on record: po.
From the text: as §1

A further series in a line: Stair case test (rat). It is filed as in vivo. The settings on record: po, sedative effect.
Another series is described as follows: Acute toxicity (mice). The settings on record: mouse, in vivo, ip, read-out: Toxicity (mice) LD 50. The protocol:
The acute toxicity of the compounds of the invention was also tested intraperitoneally on mice.

The subject of a further series is gastric evacuation. As to the kind of experiment: Gastric evacuation test (rat). It is filed as in vivo. The protocol: The compounds of formula (I) were administered orally simultaneously with 20 steel balls to wakeful rats starved for 20 hours.
Series [3] relates to vomiting induced by apomorphine. Nature of the series: Antiemetic activity (dogs), vomiting induced by apomorphine. It is filed as in vivo. The settings on record: one hour before apomorphine 0.1 mg/kg subcutaneous.

Where only a bound is given, the exact number is not on record here.

For `COc1c(N)cc(Br)cc1C(=O)N[C@@H]1C[C@H]2CC[C@@H](C1)N2Cc1ccccc1` [compound 106], the ED50 stood at 0.053 mg/kg in series [1], 1.6 mg/kg in series [2] and 8 mg/kg in “Stair case test (rat)”. The LD50 in the series “Acute toxicity (mice)” is 160 mg/kg.
As to `COc1cccc(C(=O)N[C@@H]2C[C@H]3CC[C@@H](C2)N3Cc2ccc(Cl)cc2)c1OC` [compound 112], the ED50 in series [1] amounted to 0.029 mg/kg. Further, the LD50 in “Acute toxicity (mice)” amounted to 220 mg/kg.
The matching figures for `COc1cccc(C(=O)N[C@@H]2C[C@H]3CC[C@@H](C2)N3Cc2cccc(F)c2)c1OC` [compound 113]: 0.016 mg/kg and 140 mg/kg.
As for `CCOc1cccc(C(=O)N[C@@H]2C[C@H]3CC[C@@H](C2)N3Cc2ccccc2)c1OCC` [compound 115], the results for the ED50 (in series [1]; in series [2]; in the series “Stair case test (rat)”) were 0.038 mg/kg, 0.22 mg/kg and 1.3 mg/kg, respectively. In addition, in the series “Acute toxicity (mice)”, the LD50 was 53 mg/kg.
`COc1cccc(C(=O)N[C@@H]2C[C@H]3CC[C@@H](C2)N3Cc2cccc(C)c2)c1OC` [compound 118]: the ED50 in series [1] came out at 0.016 mg/kg. In “Acute toxicity (mice)”, the LD50 was 90 mg/kg.
`COc1cccc(C(=O)N[C@@H]2C[C@H]3CC[C@@H](C2)N3Cc2ccc(C)cc2)c1OC` [compound 120]: the ED50 in series [1] was determined as 0.032 mg/kg. For the same compound, in the series “Acute toxicity (mice)”, the LD50 was found to be 100 mg/kg.
The matching figures for `COc1cc(N)c(Br)cc1C(=O)N[C@@H]1C[C@H]2CC[C@@H](C1)N2Cc1ccccc1Cl` [compound 121]: 0.024 mg/kg and 250 mg/kg.
With `CCOc1cc(N)c(Br)cc1C(=O)N[C@@H]1C[C@H]2CC[C@@H](C1)N2Cc1ccc(Cl)cc1` [compound 123], the ED50 came out at 0.041 mg/kg in series [1], 0.2 mg/kg in series [2] and 1.7 mg/kg in “Stair case test (rat)”. The LD50 in the series “Acute toxicity (mice)” was > 400 mg/kg.
For `CCOc1cc(N)c(Br)cc1C(=O)N[C@@H]1C[C@H]2CC[C@@H](C1)N2Cc1cccc(Cl)c1` [compound 126], the ED50 in series [1] is 0.054 mg/kg. Moreover, the LD50 in “Acute toxicity (mice)” is > 400 mg/kg.
Regarding `COc1cc(N)c(Cl)cc1C(=O)N[C@@H]1C[C@H]2CC[C@@H](C1)N2Cc1cccc(F)c1` [compound 127], the ED50 in series [1] was 0.007 mg/kg. Moreover, in “Acute toxicity (mice)”, the LD50 is 200 mg/kg.
As to `COc1cccc(C(=O)N[C@@H]2C[C@H]3CC[C@@H](C2)N3Cc2ccc(Br)cc2)c1OC` [compound 129], the ED50 in series [1] was 0.008 mg/kg. Besides, the LD50 in “Acute toxicity (mice)” is 180 mg/kg.
On to `COc1cc(N)c(Br)cc1C(=O)N[C@@H]1C[C@H]2CC[C@@H](C1)N2Cc1ccccc1F` [compound 131], for which the ED50 in series [1] was found to be 0.013 mg/kg. In addition, in the series “Acute toxicity (mice)”, the LD50 is 250 mg/kg.
As for `COc1cc(N)c(Br)cc1C(=O)N[C@@H]1C[C@H]2CC[C@@H](C1)N2Cc1ccoc1` [compound 132], the ED50 in series [1] was determined as 0.12 mg/kg. In addition, the “Gastric evacuation: % animals whose stomach contains no ball after 90 minutes” value in the series on gastric evacuation (0.6 mg/kg/po) was 25%; in the series with gastric evacuation (1.3 mg/kg/po), 50%; in the series with gastric evacuation (5 mg/kg/po) it was 75%; in the series on gastric evacuation (10 mg/kg/po), 100%. The “Antiemetic activity: % inhibition of vomiting induced by apomorphine” value in series [3] (0.01 mg/kg/po) is listed as 100%. For the same compound, in “Acute toxicity (mice)”, the LD50 stood at 200 mg/kg.
Turning to `COc1cc(OC)c(OC)c(C(=O)N[C@@H]2C[C@H]3CC[C@@H](C2)N3Cc2ccccc2)c1` [compound 135], the ED50 in series [1] was found to be 0.01 mg/kg. The LD50 in “Acute toxicity (mice)” stood at 70 mg/kg.
As for `CCOc1c(OC)cccc1C(=O)N[C@@H]1C[C@H]2CC[C@@H](C1)N2Cc1ccccc1` [compound 139], the ED50 in series [1] turned out to be 0.01 mg/kg; in series [2] it was 0.06 mg/kg; in “Stair case test (rat)” it was 0.3 mg/kg. Moreover, in the series “Acute toxicity (mice)”, the LD50 was 76 mg/kg.
Take `CCOc1cccc(C(=O)N[C@@H]2C[C@H]3CC[C@@H](C2)N3Cc2ccccc2)c1OC` [compound 140]: the ED50 in series [1] came to 0.019 mg/kg. The LD50 in “Acute toxicity (mice)” came to 70 mg/kg.
For the compound `CCOc1c(OC)cc(OC)cc1C(=O)N[C@@H]1C[C@H]2CC[C@@H](C1)N2Cc1ccccc1` [compound 141], the ED50 in series [1] was found to be 0.035 mg/kg. Also, the LD50 in the series “Acute toxicity (mice)” is 115 mg/kg.
Turning to `COc1cc([N+](=O)[O-])cc(C(=O)N[C@@H]2C[C@H]3CC[C@@H](C2)N3Cc2ccccc2)c1OC` [compound 142], the ED50 in series [1] came out at 0.012 mg/kg. For the same compound, the LD50 in “Acute toxicity (mice)” is 87.5 mg/kg.
In the case of `CCOc1c(OC)cccc1C(=O)N[C@@H]1C[C@H]2CCC[C@@H](C1)N2Cc1ccccc1` [compound 143], the ED50 was found to be 0.025 mg/kg in series [1], 0.26 mg/kg in series [2] and 1.6 mg/kg in “Stair case test (rat)”. Further, in the series “Acute toxicity (mice)”, the LD50 is 110 mg/kg.
As to `CCOc1c(OC)cccc1C(=O)N[C@@H]1C[C@H]2CC[C@@H](C1)N2Cc1ccc(Cl)c(Cl)c1` [compound 145], the ED50 in series [1] came to 0.3 mg/kg. The LD50 in the series “Acute toxicity (mice)” was > 400 mg/kg.
As for `COc1cc(Br)cc(C(=O)N[C@@H]2C[C@H]3CC[C@@H](C2)N3Cc2ccccc2)c1OC` [compound 147], the ED50 in series [1] amounted to 0.042 mg/kg. For the same compound, the “Gastric evacuation: % animals whose stomach contains no ball after 90 minutes” value in the series with gastric evacuation (0.3 mg/kg/po) was found to be 25%; in the series with gastric evacuation (0.6 mg/kg/po), 63%; in the series on gastric evacuation (10 mg/kg/po) it was 90%. The “Antiemetic activity: % inhibition of vomiting induced by apomorphine” value in series [3] (0.1 mg/kg/po) came out at 100%. Besides, the LD50 in the series “Acute toxicity (mice)” came out at 165 mg/kg.
For `COc1cccc(C(=O)N[C@@H]2C[C@H]3CCC[C@@H](C2)N3Cc2ccccc2)c1OC` [compound 148], the ED50 in series [1] stood at 0.008 mg/kg. Also, in the series “Acute toxicity (mice)”, the LD50 was 100 mg/kg.
The matching figures for `COc1cccc(C(=O)N[C@@H]2C[C@H]3CC[C@@H](C2)N3Cc2ccc(F)cc2)c1OC` [compound 155]: 0.005 mg/kg and 140 mg/kg.
The matching figures for `COc1cc(SC)cc(C(=O)N[C@@H]2C[C@H]3CC[C@@H](C2)N3Cc2ccccc2)c1OC` [compound 168]: 0.28 mg/kg and 120 mg/kg.
For `COc1cc(N)c(Cl)cc1C(=O)N[C@@H]1C[C@H]2CC[C@@H](C1)N2Cc1cccc(C)c1` [compound 169], the ED50 in series [1] was determined as 0.034 mg/kg; in series [2] it was 0.46 mg/kg; in “Stair case test (rat)” it was 3.5 mg/kg. The LD50 in “Acute toxicity (mice)” came out at 70 mg/kg.
For the compound `COc1cc(C(C)=O)cc(C(=O)N[C@@H]2C[C@H]3CC[C@@H](C2)N3Cc2ccccc2)c1OC` [compound 171], the ED50 in series [1] was determined as 0.029 mg/kg. Further, in the series “Acute toxicity (mice)”, the LD50 came to 115 mg/kg.
Take `COc1cccc(C(=O)N[C@@H]2C[C@H]3CC[C@@H](C2)N3Cc2cccc(Cl)c2)c1OC` [compound 173]: the ED50 in series [1] turned out to be 0.013 mg/kg. Besides, in “Acute toxicity (mice)”, the LD50 was 160 mg/kg.
For the compound `CCSc1cc(OC)c(OC)c(C(=O)N[C@@H]2C[C@H]3CC[C@@H](C2)N3Cc2ccccc2)c1` [compound 174], the ED50 in series [1] turned out to be 0.034 mg/kg. In addition, in the series “Acute toxicity (mice)”, the LD50 was found to be 95 mg/kg.
`COc1cccc(C(=O)N[C@@H]2C[C@H]3CC[C@@H](C2)N3Cc2ccc(C#N)cc2)c1OC` [compound 180]: in series [1], the ED50 stood at 0.01 mg/kg. The LD50 in “Acute toxicity (mice)” was determined as 275 mg/kg.
